Earlier results, collected in US20030013767A1, “Method of treating weight loss using creatine” (priority 2001, published 2003).

Columns and labels:
gyrate atrophy = gyrate atrophy patients
[1] = tested on: severe deficiency of creatine in brain; conditions: oral, ten to twelve months
[2] = tested on: animal models of neurologic diseases, such as amyotrophic lateral sclerosis

CN(CC(=O)O)C(=N)N [creatine]
effect on periocular muscles (gyrate atrophy): slight strengthening of the periocular muscles
effect on the atrophy (gyrate atrophy): no effect on the atrophy
toxicity ([1]; 4 grams/day (305-370 mg/kg/day) to 8 grams/day (600-740 mg/kg/day)): no report of toxicity
treatment outcome ([1]; 4 grams/day to 8 grams/day): some success
therapeutic outcome [2]: without success
